Assay results reported in PubChem BioAssay AID2060885 (Molecular Pharmacology Branch, DTP, NCI, 2025).

Tested on: NCI-H23 complex spheroids with HUVEC/MSC, viability
Assay: Anticancer human tumor NCI-H23 cell line growth inhibition [RAS];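 also: spheroids exposed to compound for 7 days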;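 as to viability, T/C: 100% = DMSO vehicle control viability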
Settings: for IC50: curve of first compound; for viability, T/C: stronger effect = lower value
Outline: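 Tumour cells grown as complex spheroids with HUVEC endothelial cells and mesenchymal stem cells, treated with RAS pathway inhibitor combinations. Each agent spans half-log steps from near clinical Cmax, or 10 microM where Cmax is unknown.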

[1] = second compound 0.000949 µM, first compound 0.0316 µM
[2] = second compound 0.000949 µM, first compound 0.1 µM
[3] = second compound 0.000949 µM, first compound 0.316 µM
[4] = second compound 0.000949 µM, first compound 1 µM
[5] = second compound 0.000949 µM, first compound 3.16 µM
[6] = second compound 0.000949 µM, first compound 10 µM
[7] = second compound 0.003 µM, first compound 0.0316 µM
[8] = second compound 0.003 µM, first compound 0.1 µM
[9] = second compound 0.003 µM, first compound 0.316 µM
[10] = second compound 0.003 µM, first compound 1 µM
[11] = second compound 0.003 µM, first compound 3.16 µM
[12] = second compound 0.003 µM, first compound 10 µM
[13] = second compound 0.00949 µM, first compound 0.0316 µM
[14] = second compound 0.00949 µM, first compound 0.1 µM
[15] = second compound 0.00949 µM, first compound 0.316 µM
[16] = second compound 0.00949 µM, first compound 1 µM
[17] = second compound 0.00949 µM, first compound 3.16 µM
[18] = second compound 0.00949 µM, first compound 10 µM
[19] = second compound 0.03 µM, first compound 0.0316 µM
[20] = second compound 0.03 µM, first compound 0.1 µM
[21] = second compound 0.03 µM, first compound 0.316 µM
[22] = second compound 0.03 µM, first compound 1 µM
[23] = second compound 0.03 µM, first compound 3.16 µM
[24] = second compound 0.03 µM, first compound 10 µM
[25] = second compound 0.0949 µM, first compound 0.0316 µM
[26] = second compound 0.0949 µM, first compound 0.1 µM
[27] = second compound 0.0949 µM, first compound 0.316 µM
[28] = second compound 0.0949 µM, first compound 1 µM
[29] = second compound 0.0949 µM, first compound 3.16 µM
[30] = second compound 0.0949 µM, first compound 10 µM
[31] = second compound 0.3 µM, first compound 0.0316 µM
[32] = second compound 0.3 µM, first compound 0.1 µM
[33] = second compound 0.3 µM, first compound 0.316 µM
[34] = second compound 0.3 µM, first compound 1 µM
[35] = second compound 0.3 µM, first compound 3.16 µM
[36] = second compound 0.3 µM, first compound 10 µM

Structure (SMILES): CC1(O)CCCC1n1c(=O)c(C(F)F)cc2cnc(NC3CCN(S(C)(=O)=O)CC3)nc21 (centres undefined) + CCn1c(-c2cc(N3CCN(C)CC3)cnc2C(C)OC)c2c3cc(ccc31)-c1csc(n1)CC(NC(=O)C1CC1C)C(=O)N1CCCC(N1)C(=O)OCC(C)(C)C2
- IC50 (second compound 0.000949 µM): < 31.6 nM
- IC50 (second compound 0.003 µM): < 31.6 nM
- IC50 (second compound 0.00949 µM): < 31.6 nM
- IC50 (second compound 0.03 µM): < 31.6 nM
- IC50 (second compound 0.0949 µM): < 31.6 nM
- IC50 (second compound 0.3 µM): < 31.6 nM
- viability, T/C [1]: 33.9%
- viability, T/C [2]: 26.3%
- viability, T/C [3]: 17.7%
- viability, T/C [4]: 25.8%
- viability, T/C [5]: 25.5%
- viability, T/C [6]: 2.68%
- viability, T/C [7]: 31.6%
- viability, T/C [8]: 18.7%
- viability, T/C [9]: 15.9%
- viability, T/C [10]: 19.1%
- viability, T/C [11]: 24%
- viability, T/C [12]: 1.43%
- viability, T/C [13]: 32%
- viability, T/C [14]: 15.7%
- viability, T/C [15]: 13.9%
- viability, T/C [16]: 17.6%
- viability, T/C [17]: 17.9%
- viability, T/C [18]: 1.78%
- viability, T/C [19]: 20.8%
- viability, T/C [20]: 18%
- viability, T/C [21]: 15%
- viability, T/C [22]: 17.1%
- viability, T/C [23]: 14.5%
- viability, T/C [24]: 2.47%
- viability, T/C [25]: 17.3%
- viability, T/C [26]: 15.4%
- viability, T/C [27]: 13.4%
- viability, T/C [28]: 14.1%
- viability, T/C [29]: 12.1%
- viability, T/C [30]: 2.66%
- viability, T/C [31]: 18.7%
- viability, T/C [32]: 14.8%
- viability, T/C [33]: 15.1%
- viability, T/C [34]: 12.8%
- viability, T/C [35]: 11.8%
- viability, T/C [36]: 2.94%

Structure (SMILES): CCC(CC)c1cc(NC2CCC(N)C2)n2nccc2n1 (centres undefined) + CCn1c(-c2cc(N3CCN(C)CC3)cnc2C(C)OC)c2c3cc(ccc31)-c1csc(n1)CC(NC(=O)C1CC1C)C(=O)N1CCCC(N1)C(=O)OCC(C)(C)C2
- IC50 (second compound 0.000949 µM): < 31.6 nM
- IC50 (second compound 0.003 µM): < 31.6 nM
- IC50 (second compound 0.00949 µM): < 31.6 nM
- IC50 (second compound 0.03 µM): < 31.6 nM
- IC50 (second compound 0.0949 µM): < 31.6 nM
- IC50 (second compound 0.3 µM): < 31.6 nM
- viability, T/C [1]: 46.5%
- viability, T/C [2]: 50.7%
- viability, T/C [3]: 40.9%
- viability, T/C [4]: 41.2%
- viability, T/C [5]: 2.33%
- viability, T/C [6]: 0.49%
- viability, T/C [7]: 37.7%
- viability, T/C [8]: 33.8%
- viability, T/C [9]: 34%
- viability, T/C [10]: 36.4%
- viability, T/C [11]: 2.67%
- viability, T/C [12]: 0.37%
- viability, T/C [13]: 36.3%
- viability, T/C [14]: 33.7%
- viability, T/C [15]: 34.2%
- viability, T/C [16]: 35.7%
- viability, T/C [17]: 1.63%
- viability, T/C [18]: 0.42%
- viability, T/C [19]: 30.1%
- viability, T/C [20]: 24.9%
- viability, T/C [21]: 31.1%
- viability, T/C [22]: 28.3%
- viability, T/C [23]: 0.59%
- viability, T/C [24]: 0.54%
- viability, T/C [25]: 22.9%
- viability, T/C [26]: 23.2%
- viability, T/C [27]: 24.7%
- viability, T/C [28]: 25.4%
- viability, T/C [29]: 0.87%
- viability, T/C [30]: 0.64%
- viability, T/C [31]: 19%
- viability, T/C [32]: 20.5%
- viability, T/C [33]: 22.4%
- viability, T/C [34]: 19%
- viability, T/C [35]: 1.45%
- viability, T/C [36]: 0.47%
